Laboratory results taken from paper PMC9228270, “Design, Synthesis, In Silico Studies and Inhibitory Activity towards Bcr-Abl, BTK and FLT3-ITD of New 2,6,9-Trisubstituted Purine Derivatives as Potential Agents for the Treatment of Leukaemia” (Pharmaceutics, 2022).
Values joined by “and” are separate entries in the source; they are usually repeats but may differ in a detail not shown here. Equal entries are not always repeated.

What was measured:
Ramos = experiment: Cytotoxicity assay (resazurin), Ramos; format: cell-based; settings: Homo sapiens, 72 h, three independent experiments, range 0.1 to 25 µM
Procedure: (§1) Cytotoxicity assays for the purines were quantified using the resazurin method, a dye to measure redox reactions occurring in the mitochondria of live cells. The cells were treated by tested compounds (in triplicate, six different doses) for 72 h.

MV4-11 = experiment: Cytotoxicity assay (resazurin), MV4-11; format: cell-based; settings: Homo sapiens, 72 h, three independent experiments, range 0.1 to 25 µM
Procedure: as §1

BTK = biological target: T1, BTK (Homo sapiens, UniProt Q06187); experiment: Recombinant kinase radioassay, BTK; format: biochemical; settings: recombinant kinase, radioassay, ATP 15 µM; at least three independent experiments, range 0.01–100 µM; read-out: IC50 BTK
T1 construct: purchased ProQinase
Procedure: (§2) Recombinant kinase inhibition was measured using standard radioassay. Bcr-Abl1 and Cdk-2/cyclin E kinases were produced in-house, FLT3-ITD and BTK were purchased from ProQinase. The kinases were assayed with suitable substrates (500 µM peptide […] for Abl, 1 mg/mL histone H1 for Cdk-2, 100 µM poly (Glu:Tyr; 4:1)) in the presence of ATP (1 µM for Bcr-Abl, 15 µM for Cdk-2 and BTK), 0.05 µCi [γ-^33P]ATP and the test compound in reaction buffer (60 mM HEPES-NaOH, pH 7.5, 3 mM MgCl2, 3 mM MnCl2, 3 µM Na orthovanadate, 1.2 mM DTT, 2.5 µg/50 µL PEG20.000). The reactions were stopped by adding 3% aq. H3PO4. P-81 phosphocellulose (Whatman) was used to separate phosphorylated substrates. Kinase activity was quantified using a FLA-7000 digital image analyser.

K562 = experiment: Cytotoxicity assay (resazurin), K562; format: cell-based; settings: Homo sapiens, 72 h, three independent experiments, range 0.1 to 25 µM
Procedure: as §1

HL-60 = experiment: Cytotoxicity assay (resazurin), HL-60; format: cell-based; settings: Homo sapiens, 72 h, three independent experiments, range 0.1 to 25 µM
Procedure: as §1

FLT3-ITD [1] = biological target: T2, FLT3-ITD (Homo sapiens, UniProt P36888, ITD); experiment: Recombinant kinase radioassay, FLT3-ITD; format: biochemical; settings: recombinant kinase, radioassay; at least three independent experiments, range 0.01–100 µM; read-out: IC50 FLT3-ITD
T2 sequence (P36888 27-993): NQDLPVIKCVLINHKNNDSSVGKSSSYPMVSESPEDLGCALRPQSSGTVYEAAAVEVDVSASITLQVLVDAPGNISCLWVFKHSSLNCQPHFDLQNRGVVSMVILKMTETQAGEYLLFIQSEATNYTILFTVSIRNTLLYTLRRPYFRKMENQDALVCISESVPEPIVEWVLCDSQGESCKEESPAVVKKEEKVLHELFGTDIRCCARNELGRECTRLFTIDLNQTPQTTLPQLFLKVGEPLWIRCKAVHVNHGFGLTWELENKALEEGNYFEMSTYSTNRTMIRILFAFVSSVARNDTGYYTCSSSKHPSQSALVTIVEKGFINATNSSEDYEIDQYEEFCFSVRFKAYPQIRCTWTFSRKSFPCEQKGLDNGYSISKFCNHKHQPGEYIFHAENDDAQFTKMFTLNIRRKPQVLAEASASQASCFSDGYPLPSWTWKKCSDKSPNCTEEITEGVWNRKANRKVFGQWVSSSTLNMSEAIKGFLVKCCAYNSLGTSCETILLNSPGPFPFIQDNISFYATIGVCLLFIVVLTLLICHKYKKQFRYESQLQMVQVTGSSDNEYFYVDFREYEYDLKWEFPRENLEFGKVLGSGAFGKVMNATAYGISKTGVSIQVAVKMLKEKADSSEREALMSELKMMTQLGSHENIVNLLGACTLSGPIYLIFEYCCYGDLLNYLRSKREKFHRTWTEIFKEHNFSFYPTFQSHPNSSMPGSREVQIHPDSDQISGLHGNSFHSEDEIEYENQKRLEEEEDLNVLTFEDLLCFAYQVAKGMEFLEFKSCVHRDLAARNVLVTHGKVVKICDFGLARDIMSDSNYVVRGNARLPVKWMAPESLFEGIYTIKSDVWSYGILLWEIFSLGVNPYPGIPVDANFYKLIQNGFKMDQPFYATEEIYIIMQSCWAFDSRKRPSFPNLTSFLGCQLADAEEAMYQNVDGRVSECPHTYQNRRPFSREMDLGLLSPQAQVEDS
Procedure: as §2

CEM = experiment: Cytotoxicity assay (resazurin), CEM; format: cell-based; settings: Homo sapiens, CCRF-CEM, 72 h, three independent experiments, range 0.1 to 25 µM
Procedure: as §1

[2] = tested on: Bcr-Abl signalling in K562 cells; experiment: Immunoblotting of Bcr-Abl downstream signalling in K562; format: cell-based; settings: 4 h
Procedure: (§3) Protein changes in the treated cells were analysed using immunoblotting. Briefly, cell lysates were separated on SDS-polyacrylamide gels and electroblotted onto nitrocellulose membranes. After blocking, overnight incubation with specific primary antibodies and incubation with peroxidase-conjugated secondary antibodies, the peroxidase activity was detected with Super-Signal West Pico reagents (Thermo Scientific, Waltham, MA, USA) using a CCD camera LAS-4000 (Fujifilm). The following specific antibodies were purchased from Cell Signalling: anti-FLT3 (clone 8F2), anti-phospho-FLT3 Y589/591 (clone 30D4), anti-STAT5 (clone D2O6Y), anti-phospho-STAT5 Y694, anti-ERK1/2, anti-phospho-ERK1/2 T202/Y204, anti-Akt (clone C67E7), anti-phospho-Akt S473 (clone D9E), anti-phospho-Bcr Y177, anti-CrkL (clone 32H4), anti-phospho-CrkL Y207, anti-BTK (clone C82B8), anti-phospho-BTK Y223, anti-PLCγ2, anti-phospho-PLCγ2 Y1217, and anti-PARP-1 (clone 46D11). Anti-α-tubulin (clone DM1A) was purchased from Sigma Aldrich.
(§4) Based on their inhibitory effects on recombinant kinases as well as cytotoxic effects in relevant cell line models, the purine derivatives 4i, 5b and 5j were selected for further experiments to confirm the expected molecular mechanism of action. The candidate compounds were tested to determine changes in signalling pathways downstream of the oncogenic kinases in cells. […]

Bcr-Abl1 = Bcr-Abl1 (Homo sapiens, UniProt P00519); experiment: Recombinant kinase radioassay, Abl; format: biochemical; settings: ATP 1 µM, at least three independent experiments, range 0.01–100 µM
Procedure: as §2

Cdk-2/cyclin E = biological target: T3, Cdk-2/cyclin E (Homo sapiens, UniProt P24941); experiment: Recombinant kinase radioassay, Cdk-2/cyclin E; format: biochemical; settings: ATP 15 µM, at least three independent experiments, range 0.01–100 µM
T3 construct: made in house
Procedure: as §2

K562 cells = experiment: Flow cytometry cell cycle, K562; format: cell-based; settings: 24 h, sub-micromolar concentrations
Procedure: (§5) Cell cycle effects were measured using flow cytometric determination of DNA content. MV4-11 and K562 cells were treated with tested compounds for 24 h. After the staining with propidium iodide, the DNA content was analysed by flow cytometry using a 488 nm laser (BD FACS Verse with software BD FACSuite^TM, version 1.0.6.). The cell cycle distribution was analysed using ModFit LT (Verity Software House 5.0, Topsham, ME, USA).

PARP-1 cleavage in K562 = experiment: Immunoblotting of PARP-1 cleavage, K562; format: cell-based; settings: K562 cells, 4 h
Procedure: as §3, with “Anti-α-tubulin (clone DM1A) was purchased from Sigma Aldrich.” left out
(§6) Finally, we analysed the mechanism of cell death induced by the prepared compounds 4i and 5b. Proteolytic cleavage of PARP-1—a well-established protein involved in apoptosis—was analysed in K562 and MV4-11 treated with respective compounds for 4 h. […] The PARP-1 fragment was not detected in MV4-11 cells treated with 5b because the compound was not effective in inducing apoptosis after 4 h of treatment (Figure 14B).

[3] = tested on: caspase 3/7 activity in K562 cells; experiment: Caspase-3/7 assay, K562; format: cell-based; settings: 24 h, at 1 µM
Procedure: (§7) MV4-11 and K562 cells were kept in a 96-well plate were treated with increasing concentrations of compound 4i and 5b for 24 h. After this period, caspase-3/7 assay buffer (150 mM HEPES pH 7.4, 450 mM NaCl, 150 mM KCl, 30 mM MgCl2, 1.2 mM EGTA, 1.5% Nonidet P40, 0.3% CHAPS, 30% sucrose, 30 mM DTT, and 3 mM PMSF) containing 150 µM peptide substrate Ac-DEVD-AMC (Enzo Life Sciences, Farmingdale, NY, USA) was added, and after 2 h incubation, the fluorescence of AMC was measured using a Fluoroskan Ascent microplate reader (Labsystems) at 346 nm/442 nm (excitation/emission).

[4] = tested on: BTK signalling in Ramos cells; experiment: Immunoblotting of BTK signalling in anti-IgM-stimulated Ramos; format: cell-based; settings: immunoglobulin M-activated Ramos cells, 4 h, dose-dependent
Procedure: as §3, §4

FLT3-ITD [5] = biological target: T4, FLT3-ITD (Homo sapiens, UniProt P36888); design: method as in PMID 29672049; settings: cited from earlier work
T4 sequence (P36888 27-993): T2 sequence (P36888 27-993)

[6] = tested on: FLT3-ITD signalling in MV4-11 cells; experiment: Immunoblotting of FLT3-ITD-dependent pathway in MV4-11; format: cell-based; settings: 4 h
Procedure: as §3, §4

MV4-11 cells = experiment: Flow cytometry cell cycle, MV4-11; format: cell-based; settings: 24 h, sub-micromolar concentrations
Procedure: as §5

[7] = tested on: PARP-1 cleavage in MV4-11; experiment: Immunoblotting of PARP-1 cleavage, MV4-11; format: cell-based; settings: MV4-11 cells, 4 h
Procedure: as §3, with “Anti-α-tubulin (clone DM1A) was purchased from Sigma Aldrich.” left out
as §6

[8] = tested on: caspase 3/7 activity in MV4-11 cells; experiment: Caspase-3/7 assay, MV4-11; format: cell-based; settings: 24 h
Procedure: as §7

T1 sequence (Q06187 whole entry): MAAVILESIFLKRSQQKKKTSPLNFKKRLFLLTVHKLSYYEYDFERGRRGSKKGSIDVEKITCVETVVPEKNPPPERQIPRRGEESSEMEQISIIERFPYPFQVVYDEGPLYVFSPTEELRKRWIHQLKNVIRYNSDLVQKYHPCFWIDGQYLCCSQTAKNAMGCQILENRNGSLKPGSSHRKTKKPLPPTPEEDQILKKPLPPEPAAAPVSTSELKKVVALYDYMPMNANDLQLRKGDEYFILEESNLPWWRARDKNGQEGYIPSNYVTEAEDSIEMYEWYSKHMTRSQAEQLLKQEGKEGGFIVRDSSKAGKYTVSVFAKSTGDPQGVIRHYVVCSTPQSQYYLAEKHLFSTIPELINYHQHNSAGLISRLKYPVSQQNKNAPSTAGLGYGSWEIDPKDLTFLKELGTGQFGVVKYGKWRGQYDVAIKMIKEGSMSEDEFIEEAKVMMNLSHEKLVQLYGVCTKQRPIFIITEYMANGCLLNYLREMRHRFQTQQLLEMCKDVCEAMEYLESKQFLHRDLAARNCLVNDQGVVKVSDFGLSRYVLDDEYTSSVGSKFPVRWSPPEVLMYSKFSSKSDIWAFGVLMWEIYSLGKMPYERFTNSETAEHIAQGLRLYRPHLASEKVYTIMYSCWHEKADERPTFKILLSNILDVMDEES
Chain of Bcr-Abl1 (P00519 27-1130): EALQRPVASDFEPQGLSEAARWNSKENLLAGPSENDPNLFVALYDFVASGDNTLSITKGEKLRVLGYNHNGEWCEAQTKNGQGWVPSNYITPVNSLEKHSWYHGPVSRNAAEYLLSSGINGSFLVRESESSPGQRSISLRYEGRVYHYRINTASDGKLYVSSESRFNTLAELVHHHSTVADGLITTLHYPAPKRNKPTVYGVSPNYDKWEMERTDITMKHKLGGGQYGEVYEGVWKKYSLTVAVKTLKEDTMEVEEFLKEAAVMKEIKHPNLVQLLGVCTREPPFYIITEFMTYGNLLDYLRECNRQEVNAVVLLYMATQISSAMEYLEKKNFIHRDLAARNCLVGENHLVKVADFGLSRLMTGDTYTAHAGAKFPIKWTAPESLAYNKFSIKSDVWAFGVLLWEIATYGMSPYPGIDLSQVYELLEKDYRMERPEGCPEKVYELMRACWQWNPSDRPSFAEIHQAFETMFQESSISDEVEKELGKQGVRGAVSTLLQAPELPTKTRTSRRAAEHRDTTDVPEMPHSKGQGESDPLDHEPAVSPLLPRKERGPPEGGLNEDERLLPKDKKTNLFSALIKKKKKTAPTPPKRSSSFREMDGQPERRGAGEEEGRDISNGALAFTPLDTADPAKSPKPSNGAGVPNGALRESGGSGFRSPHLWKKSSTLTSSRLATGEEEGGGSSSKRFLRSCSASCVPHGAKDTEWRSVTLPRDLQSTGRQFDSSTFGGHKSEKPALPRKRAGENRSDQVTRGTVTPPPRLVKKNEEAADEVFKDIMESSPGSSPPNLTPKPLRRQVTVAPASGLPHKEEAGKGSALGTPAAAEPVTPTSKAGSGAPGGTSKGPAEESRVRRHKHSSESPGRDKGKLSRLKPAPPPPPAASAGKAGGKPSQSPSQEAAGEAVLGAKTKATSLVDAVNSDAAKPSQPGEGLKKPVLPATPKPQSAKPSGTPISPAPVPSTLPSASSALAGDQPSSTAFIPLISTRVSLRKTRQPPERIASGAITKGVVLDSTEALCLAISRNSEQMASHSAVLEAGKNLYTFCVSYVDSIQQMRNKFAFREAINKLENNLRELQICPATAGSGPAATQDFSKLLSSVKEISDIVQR

Row | Structure (SMILES) | GI50 (Ramos) [nM] | GI50 (MV4-11) [nM] | IC50 (BTK) | GI50 (K562) [nM] | GI50 (HL-60) [nM] | IC50 (FLT3-ITD [1]) [nM] | GI50 (CEM) [nM] | IC50 (Bcr-Abl1) [nM] | IC50 (Cdk-2/cyclin E) [nM] | melting point [°C] | other results
1 | CN1CCN(c2ccc(Nc3nc(Nc4ccc(C#N)cc4)c4ncn(CC5CC5)c4n3)cc2)CC1 [Compound 4i, 4-((9-(Cyclopropylmethyl)-2-((4-(4-methylpiperazin-1-yl)phenyl)amino)-9H-purin-6-yl)amino)benzonitrile] | 1490 ± 50 | 890 ± 70 | 910 ± 190 nM | 1030 ± 210 | 3170 ± 570 | 370 | 1850 ± 100 | 100 ± 30 | 10800 ± 1600 |  | Concentration from which autophosphorylation of Bcr (pBcr) is inhibited [2]: ≥ 0.08 µM; Level of phosphorylated STAT5 (pSTAT5) and CrkL (pCrkL) [2]: dose-dependently decreased; Cell cycle effect (K562 cells): effectively induced G1 arrest; 89 kDa fragment of PARP-1 (PARP-1 cleavage in K562): increased levels; Relative caspase 3/7 activity [3]: nearly five-fold increase
2 | CCCCCCCCn1cnc2c(Nc3ccccc3)nc(Nc3ccc(N4CCN(C)CC4)cc3)nc21 [Compound 5j, N^2-(4-(4-Methylpiperazin-1-yl)phenyl)-9-octyl-N^6-phenyl-9H-purine-2,6-diamine] | 14200 ± 2610 | 4450 ± 1480 | < 580 nM and 410 nM | 8190 ± 60 | 1250 ± 110 | 20300 | 23600 ± 2010 | > 100000 | 19000 ± 1550 | 171.3 to 173.5 | Levels of phosphorylated BTK and downstream targets PLCγ2 and Akt [4]: decreased
3 | CN1CCN(c2ccc(Nc3nc(Nc4ccc(OC(F)(F)F)c([N+](=O)[O-])c4)c4ncn(CC5CC5)c4n3)cc2)CC1 [Compound 4o, 9-(Cyclopropylmethyl)-N^2-(4-(4-methylpiperazin-1-yl)phenyl)-N^6-(3-nitro-4-(trifluoromethoxy)phenyl)-9H-purine-2,6-diamine] | 4460 ± 380 | 1490 ± 330 | 5030 ± 990 nM | 2600 ± 1250 | 1680 ± 10 | 2670 | 14800 ± 1320 | 440 ± 120 | 12600 ± 2120 | 144 to 145 | 
4 | CCCCCCn1cnc2c(Nc3cccc(F)c3)nc(Nc3ccc(N4CCN(C)CC4)cc3)nc21 [Compound 5h, N^6-(3-Fluorophenyl)-9-hexyl-N^2-(4-(4-methylpiperazin-1-yl)phenyl)-9H-purine-2,6-diamine] | > 25000 | 3540 ± 1530 | 320 ± 10 nM | 24700 ± 410 | 8770 ± 3840 | 2310 | > 25000 | > 100000 | 80800 ± 12500 | 147.1 to 149.9 | 
5 | NC1CCC(Nc2nc(Nc3ccc(CN4CCOCC4)cc3)c3ncn(C4CCCC4)c3n2)CC1 (stereo not shown) [II] |  |  |  |  |  |  |  |  |  |  | IC50 (FLT3-ITD [5]): 2 nM
6 | CN1CCN(c2ccc(Nc3nc(Nc4ccc(F)c(Cl)c4)c4ncn(CC5CC5)c4n3)cc2)CC1 [Compound 4m, N^6-(3-Chloro-4-fluorophenyl)-9-(cyclopropylmethyl)-N^2-(4-(4-methylpiperazin-1-yl)phenyl)-9H-purine-2,6-diamine] | 7520 ± 410 | 1880 ± 60 | 2390 ± 430 nM | 2570 ± 520 | 860 ± 110 | 1540 | 13400 ± 1580 | 270 ± 50 | 10800 ± 3840 | 153 to 155 | 
7 | CC(C)CCn1cnc2c(Nc3cccc(F)c3)nc(Nc3ccc(N4CCN(C)CC4)cc3)nc21 [Compound 5b, N^6-(3-Fluorophenyl)-9-isopentyl-N^2-(4-(4-methylpiperazin-1-yl)phenyl)-9H-purine-2,6-diamine] | 18700 ± 3100 | 2890 ± 950 | 3780 ± 860 nM | 18600 ± 3730 | 2040 ± 580 | 380 | > 25000 | > 50000 | 21100 ± 1910 |  | Phosphorylation of STAT5 [6]: inhibited; Autophosphorylation of the oncogenic FLT3-ITD ([6]; increasing concentrations): clear suppression; Cell cycle effect (MV4-11 cells): effectively induced G1 arrest; PARP-1 fragment [7]: not detected; Caspase 3/7 induction [8]: a higher concentration of 5b was required for caspase induction
